Like-named read-outs stand apart in the source and are kept apart here. Marks after values point to notes of the source that are not given here. Numbered stars: 1 amine (or outer) side, 2 acyl side, 3 side chain; on linkers, the order of the positions; unused ones are H or OH. Bridge positions count the residues as written; N and C are the ends. Square brackets hold non-standard residues; d marks the D form. Peptide text beside a SMILES is read from it. * marks the point of attachment. X2 = COc1cc2cc(c1Cl)N(C)C(=O)C[C@H](OC(=O)[C@H](C)N(C)C(=O)CCC(C)SSC(C)CCC(=O)*)[C@]1(C)O[C@H]1[C@H](C)[C@@H]1C[C@@](O)(NC(=O)O1)[C@H](OC)/C=C/C=C(\C)C2; 1Nal = N[C@@H](Cc1cccc2ccccc12)C(=O)O; TBMB = c1c(C[*:1])cc(C[*:3])cc1C[*:2]; Tle = CC(C)(C)[C@H](N)C(=O)O; βAla = NCCC(=O)O; Sar = CNCC(=O)O

The conditions of series [1]: Kellogg et al (2011), cited from earlier work.
For series [2], the system named is human lung squamous cell carcinoma line EBC-1. Nature of the series: Efficacy in EBC-1 xenograft mice. The format is in vivo, mouse. Here is the method:
In vivo efficacy of BT17BDC-17, BT17BDC-18, BT17BDC-19 and BT17BDC-20 All BDCs containing the stabilised bicycle core sequence were tested for their efficacies in in vivo mouse xenograft models, using the human lung squamous cell carcinoma line EBC-1.
The area under the curve (AUC) of tumour volume over time and BDC was taken and plotted against the corresponding dose group (FIG. 13).

A short description of series [3]: Plasma stability, quantitative LC-MS (Method #2). The format is in vitro ADME, mouse. Particulars: for half-life at 4 μM: mouse, quantitative LC-MS, incubation up to 24 hrs, 4 μM BDC, read-out: t1/2 (hrs) (mouse plasma) (converted). The procedure:
To obtain plasma stability of bicyclic peptides quantitatively, peptide stock solutions (200 μM in DMSO) were mixed with plasma (human or mouse), such that final concentrations were 10 μM. 40 μL samples were taken periodically up to 8 hrs and frozen at −80° C. Prior to LC-MS analysis, samples were defrosted, and mixed with 3 volumes (here, 120 μL) of 1:1 acetonitrile/MeOH water. The milky suspensions were centrifuged for 30 min at 13000 rpm, and peptide-containing supernatants were quantitated for doubly/triply charged species and MS/MS fragments thereof using a Waters Xevo TQ-D instrument, while using a plasma extracted standard curve of the same peptides as a reference. The half-life of degradation in plasma was used to assess the comparative stability of the molecules.

The nature of series [4]: Stability to reducing agent dithiothreitol (DTT). It counts as physicochemical. Particulars: Bicycle Drug Conjugates, quantitative LC-MS. Here is the method:
(§1) The four BDCs were assessed for several in vitro parameters such as retention of potency to the human MT1-MMP hemopexin domain, stability in ex vivo mouse, rat and human plasma, and stability to reducing agents such as dithiothreitol.

A short description of series [5]: Plasma stability, quantitative LC-MS. Particulars: rat, incubation up to 24 hrs, 4 μM BDC, read-out: t1/2 (hrs) (rat plasma) (converted). The format is in vitro ADME. Here is the method: as §1
Series [6] in a line: Plasma stability, quantitative LC-MS (Method #2). It counts as in vitro ADME, human. The conditions noted are these: human, human plasma. The procedure: […] […] Prior to LC-MS analysis, samples were defrosted, and mixed with 3 volumes (here, 120 μL) of 1:1 acetonitrile/MeOH water. The milky suspensions were centrifuged for 30 min at 13000 rpm, and peptide-containing supernatants were quantitated for doubly/triply charged species and MS/MS fragments thereof using a Waters Xevo TQ-D instrument, while using a plasma extracted standard curve of the same peptides as a reference. The half-life of degradation in plasma was used to assess the comparative stability of the molecules.

Series [7] concerns the target T1, MT1-MMP hemopexin domain (PEX) (Homo sapiens, UniProt P50281).
T1 construct: residues Cys319-Gly511 from the human gene; His6 (N); made in house; host or cells: HEK293 (transient, pEXPR-IBA42 vector)
Nature of the series: Competition assay using fluorescence polarisation. It counts as binding. An excerpt:
(§2) Here, a pre-formed complex of PEX with the fluorescent PEX-binding tracer is titrated with free, non-fluoresceinated bicyclic peptide. Since all 17-69-based peptides are expected to bind at the same site, the titrant will displace the fluorescent tracer from PEX. Dissociation of the complex can be measured quantitatively, and the Kd of the competitor (titrant) to the target protein determined. The advantage of the competition method is that the affinities of non-fluoresceinated bicyclic peptides can be determined accurately and rapidly.
(§3) Subsequently, the non-fluorescent competitor bicyclic peptide (usually just the bicycle core sequence) is titrated, such that it displaces the fluorescent tracer from the target protein. The displacement of the tracer is measured and associated with a drop in fluorescence polarisation. The drop in fluorescence polarisation is proportional to the fraction of target protein bound with the non-fluorescent titrant, and thus is a measure of the affinity of titrant to target protein.
The raw data is fit to the analytical solution of the cubic equation that describes the equilibria between fluorescent tracer, titrant, and binding protein. The fit requires the value of the affinity of fluorescent tracer to the target protein, which can be determined separately by direct binding FP experiments (see previous section).

Series [8] deals with MT1-MMP hemopexin domain. Nature of the series: FP competition, species cross-reactivity (dog). It counts as binding. The conditions noted are these: Table 13.
Description: as §2, §3
The raw data is fit to the analytical solution of the cubic equation that describes the equilibria between fluorescent tracer, titrant, and binding protein. The fit requires the value of the affinity of fluorescent tracer to the target protein, which can be determined separately by direct binding FP experiments (see previous section). […]

For the molecule `COc1cc2cc(c1Cl)N(C)C(=O)C[C@H](OC(=O)[C@H](C)N(C)C(=O)CCC(C)SSC(C)CCC(=O)NCCC(=O)N(C)CC(=O)N(C)CC(=O)N(C)CC(=O)N(C)CC(=O)N(C)CC(=O)N(C)CC(=O)N(C)CC(=O)N(C)CC(=O)N(C)CC(=O)N(C)CC(=O)N[C@@H](C)C(=O)N[C@H]1CSCc3cc4cc(c3)CSC[C@H](NC(=O)[C@@H](C)NC(=O)[C@H](Cc3cccc5ccccc35)NC(=O)[C@H](CCC(=O)O)NC(=O)[C@H](CC(N)=O)NC(=O)[C@@H](C)NC1=O)C(=O)N[C@@H](CCC(=O)O)C(=O)N[C@@H](CC(=O)O)C(=O)N[C@@H](Cc1ccccc1)C(=O)N[C@@H](Cc1ccc(O)cc1)C(=O)N[C@@H](CC(=O)O)C(=O)N[C@@H](C(C)(C)C)C(=O)N[C@H](C(N)=O)CSC4)[C@]1(C)O[C@H]1[C@H](C)[C@@H]1C[C@@](O)(NC(=O)O1)[C@H](OC)/C=C/C=C(\C)C2` (stereo partly drawn) [BT17BDC-20] ({X2-βAla}-[Sar][Sar][Sar][Sar][Sar][Sar][Sar][Sar][Sar][Sar]AC[dA]NE[1Nal][dA]CEDFYD[Tle]C-NH2; linker 12-18-25 via TBMB), the “fold reduction in sensitivity to a reducing agent such as dithiothreitol” value in series [1] (in the antibody drug conjugate context, compared to the non-hindered disulphide) was 170 fold. Also, the “Relative Stability to DTT (ADC)” value in series [1] (values relate to antibody drug conjugates containing the same disulphide linker) is reported as 170. Further, in series [2] (EBC-1 xenograft), the “efficacy in EBC-1 xenograft” value is listed as “not efficacious” and the “tolerability / body weight” value is reported as “tolerated based on constant weight”. In series [2] (mouse bearing EBC-1 tumours, ± 95% confidence limit), the “ED50, effective dose to achieve 50% tumour AUC reduction” value is reported as 22 ± 13^b mg/kg. The half-life at 4 μM in series [3] (plasma) is greater than 36 h. In addition, in series [4], the “Relative Stability to DTT (BDC)” value is 93. In addition, in series [5] (plasma), the half-life at 4 μM was 34 ± 4 h.
`CC[C@H](C)[C@@H]1NC(=O)[C@H](CC(=O)O)NC(=O)[C@H](Cc2ccc(O)cc2)NC(=O)[C@H](Cc2ccccc2)NC(=O)[C@H](CC(=O)O)NC(=O)[C@H](CCC(=O)O)NC(=O)[C@@H]2CSCc3cc(cc(c3)CSC[C@H](NC(=O)[C@H](C)NC(=O)CN(C)C(=O)CN(C)C(=O)CN(C)C(=O)CN(C)C(=O)CN(C)C(=O)CN(C)C(=O)CN(C)C(=O)CN(C)C(=O)CN(C)C(=O)CN(C)C(=O)CN)C(=O)N[C@@H](Cc3ccc(O)cc3)C(=O)N[C@@H](CC(N)=O)C(=O)N[C@@H](CCC(=O)O)C(=O)N[C@@H](Cc3ccccc3)C(=O)NCC(=O)N2)CSC[C@@H](C(N)=O)NC1=O` [17-69-07-N219, G-Sar10-A-(17-69-07)] (H-G[Sar][Sar][Sar][Sar][Sar][Sar][Sar][Sar][Sar][Sar]ACYNEFGCEDFYDIC-NH2; linker 13-19-26 via TBMB; C-terminus assumed): the half-life at 10 μM is 6 h in series [3] (ex vivo mouse plasma at 37° C., Method #2 (FIG. 1, FIG. 3A), read-out: half-life of the peptide in mouse plasma (converted)) and 6 h in series [6] (37° C., sentence prints mouse plasma, read-out: half-life of the peptide in plasma (FIG. 3B, human plasma stability) (converted)). Besides, the half-life at 4 μM was 3.9 ± 0.3 h in series [3] (mouse plasma); 30.3 ± 4.7 h in series [6] (quantitative LC-MS, incubation up to 24 hrs, 4 μM BDC, read-out: t1/2 (hrs) (human plasma) (converted)); 3.7 h in series [5] (rat plasma (ex vivo)). Moreover, the Kd in series [7] (Table 12, molecules selected for plasma stability assessment, read-out: Kd) was 0.82 ± 0.09 nM; in series [7] (Table 13, Human/cyno MT1-MMP hemopexin domain, FP competition, read-out: Human/cyno (Kd)), 0.82 nM; in series [7] (Table 16, FP competition, footnote e: 17-69-07-N004 as tracer, read-out: Kd (nM) (Hemopexin domain)) it was 0.82 ± 0.09 nM; in series [7] (read-out: Kd, affinity to PEX / MT1-MMP), 0.82 nM; in series [8] it was 0.9 nM.

The values are drawn from patent US11672868B2, “Bicyclic peptide ligands specific for MT1-MMP” (priority 2014, dated 2023).
